Source: patent US7951530B2, “Cyclic maltosylmaltose, cyclic maltosymaltose-forming enzyme, their preparation and uses” (Kabushiki Kaisha Hayashibara Seibutsu Kagaku Kenkyujo, priority 2003, dated 2011)
Read-outs that look alike come from different tables or passages of the source.

Tests used:
[1] = Amino-carbonyl reaction with glycine; assay type: physicochemical; conditions: […] (w/v) saccharide, 0.5% (w/v) glycine, pH 8.0, 100° C.
Experimental: (§1) As a control, an aqueous solution containing maltose and glycine was prepared in the same manner using maltose except for the powdery hydrous crystalline CMM. Four milliliters each of the solution was put in a glass tube, sealed and then heated at 100° C. for 30, 60, or 90 min. After cooling the solutions, the degrees of coloring of the solutions were measured to estimate the degree of amino-carbonyl reaction. The degree of coloring was defined as an absorbance at 480 nm using a 1 cm-cell.

[2] = test system: CMM-forming enzyme; experiment: Action on various saccharides (substrate specificity, TLC); assay type: biochemical, Arthrobacter globiformis M6; set-up: key: “−” means “Not changed”; “+” means “Spot of substrate is slightly decreased and other products are detected”; “++” means “Spot of substrate is markedly decreased and other products are detected”; “+++” means “Spot of substrate is virtually disappeared and other products are detected”; conditions: substrate 2% (w/v), one unit/g-substrate enzyme, 40° C., pH 6.0, 24 hours, TLC before and after reaction
Experimental: Substrate specificity of CMM-forming enzyme of the present invention was investigated using various saccharides as substrates. Substrate solutions were prepared by dissolving maltose, maltotriose, maltotetraose, maltopentaose, maltohexaose, maltoheptaose, neotrehalose, trehalose, kojibiose, nigerose, […] isomaltose, isomaltotriose, panose, isopanose, maltitol, maltotriitol, α-, β- or γ-cyclodextrin, amylose, soluble starch, glycogen, pullulan or dextran into water. Each substrate solution was admixed with acetate buffer (pH 6.0) and CaCl2 to give final concentrations of 20 mM and 1 mM, respectively. […] Substrate concentration was set to 2% (w/v) and followed by the enzyme reaction at 40° C. and pH 6.0 for 24 hours. Action and the specificity of the enzyme on these saccharides were confirmed by analyzing the reaction mixture before and after the reaction by TLC described in Experiment 1.

[3] = Amino-carbonyl reaction with polypeptone; assay type: physicochemical; conditions: 5% (w/v) saccharide, 5% (w/v) polypeptone, 120° C., blank subtracted
Experimental: as §1, with “polypeptone” for “glycine”, “120°” for “100°”, “reaction. As a blank test, a solution containing polypeptone only was heated in the same manner.” for “reaction.”, “cm-cell after subtracting the absorbance of the blank test.” for “cm-cell.”

[4] = test system: CMM-forming enzyme; experiment: Effects of metal ions on the enzyme activity; assay type: biochemical, Arthrobacter globiformis M6; conditions: for Effect on CMM-forming enzyme activity: 1 mM
[5] = test system: CMM-forming enzyme; experiment: Formation of CMM from various substrates; assay type: biochemical, Arthrobacter globiformis M6; conditions: substrate 1.0% (w/v), one unit/g-substrate enzyme, 40° C., pH 6.0, 48 hours, HPLC
Experimental: Formation of CMM by the action of CMM-forming enzyme of the present invention was investigated using various saccharides as substrates. Maltotriose, maltotetraose, maltopentaose, maltohexaose, amylose, soluble starch, “[…] #100”, a partial starch hydrolyzate commercialized by Matsutani Chemical Industries Co., Ltd., Hyogo, Japan, or glycogen from corn, commercialized by Q.P. Corporation, Tokyo, Japan, was prepared into a solution. […] The reaction was stopped by heating the reaction mixture at 100° C. for 10 min. After treating the reaction mixture with α-glucosidase and glucoamylase by the same manner in Experiment 1, the amount of CMM was determined by HPLC and CMM content of the reaction mixture was measured.

[6] = CMM-forming enzyme activity in the presence of 1 mM metal salt, None = 100

Compound	Action [2]	Relative activity (%) [4, 6] [%]	further results
OC[C@H]1O[C@H](O[C@H]2[C@H](O)[C@@H](O)C(O)O[C@@H]2CO)[C@H](O)[C@@H](O)[C@@H]1O (mixture of isomers) [Maltose, maltose]	−		Degree of coloring (A480 nm) ([1]; heating time 0 min): 0.00; Degree of coloring (A480 nm) ([1]; heating time 30 min): 0.02; Degree of coloring (A480 nm) ([1]; heating time 60 min): 0.08; Degree of coloring (A480 nm) ([1]; heating time 90 min): 0.17; Degree of coloring (A480 nm) ([3]; heating time 0 min): 0.00; Degree of coloring (A480 nm) ([3]; heating time 30 min): 0.10; Degree of coloring (A480 nm) ([3]; heating time 60 min): 0.30; Degree of coloring (A480 nm) ([3]; heating time 90 min): 0.62
[Cl][Al]([Cl])[Cl] [AlCl3]		13	Effect on CMM-forming enzyme activity [4]: inhibited
[Ba+2].[Cl-].[Cl-] [BaCl2]		90	
[Ca+2].[Cl-].[Cl-] [CaCl2]		99	
[Cl-].[Cl-].[Co+2] [CoCl2]			Relative activity (%) [4]: 95%
[Cl][Cu][Cl] [CuCl2]		1	Effect on CMM-forming enzyme activity [4]: remarkably inhibited
[Cl][Fe][Cl] [FeCl2]		95	
[Cl][Fe]([Cl])[Cl] [FeCl3]		32	Effect on CMM-forming enzyme activity [4]: inhibited
[Cl][Hg][Cl] [HgCl2]		2	Effect on CMM-forming enzyme activity [4]: remarkably inhibited
OC[C@H]1O[C@H](OC[C@H]2OC(O)[C@H](O)[C@@H](O)[C@@H]2O)[C@H](O)[C@@H](O)[C@@H]1O (some centres unmarked) [Isomaltose, isomaltose]	−		
OC[C@H]1O[C@H](OC[C@H]2O[C@H](OC[C@H]3OC(O)[C@H](O)[C@@H](O)[C@@H]3O)[C@H](O)[C@@H](O)[C@@H]2O)[C@H](O)[C@@H](O)[C@@H]1O (some centres unmarked) [Isomaltotriose, isomaltotriose]	−		
OC[C@H]1O[C@H](O[C@H]2[C@H](O)[C@@H](O)[C@@H](OC[C@H]3OC(O)[C@H](O)[C@@H](O)[C@@H]3O)O[C@@H]2CO)[C@H](O)[C@@H](O)[C@@H]1O (some centres unmarked) [Isopanose, isopanose]	−		
OC[C@H]1O[C@H](O[C@H]2C(O)O[C@H](CO)[C@@H](O)[C@@H]2O)[C@H](O)[C@@H](O)[C@@H]1O (some centres unmarked) [Kojibiose, kojibiose]	−		
OC[C@H]1O[C@H](O[C@H]2[C@H](O)[C@@H](O)[C@@H](O[C@H]3[C@H](O)[C@@H](O)[C@@H](O[C@H]4[C@H](O)[C@@H](O)C(O)O[C@@H]4CO)O[C@@H]3CO)O[C@@H]2CO)[C@H](O)[C@@H](O)[C@@H]1O (some centres unmarked) [Maltotetraose, maltotetraose]	+++		CMM content (%) [5]: 27.3%
OC[C@@H](O)[C@@H](O[C@H]1O[C@H](CO)[C@@H](O[C@H]2O[C@H](CO)[C@@H](O)[C@H](O)[C@H]2O)[C@H](O)[C@H]1O)[C@H](O)[C@@H](O)CO [Maltotriitol, maltotriitol]	−		
[Cl-].[Cl-].[Mg+2] [MgCl2]		98	
[Cl][Mn][Cl] [MnCl2]		97	
OC[C@H]1O[C@@H](O[C@H]2O[C@H](CO)[C@@H](O)[C@H](O)[C@H]2O)[C@H](O)[C@@H](O)[C@@H]1O [Neotrehalose, neotrehalose]	−		
[Cl][Ni][Cl] [NiCl2]		90	

Compound	Action [2]	Relative activity (%) [4, 6] [%]	further results
OC[C@H]1O[C@H](O[C@H]2[C@H](O)[C@@H](CO)OC(O)[C@@H]2O)[C@H](O)[C@@H](O)[C@@H]1O (some centres unmarked) [Nigerose, nigerose]	−		
OC[C@H]1O[C@H](OC[C@H]2O[C@H](O[C@H]3[C@H](O)[C@@H](O)C(O)O[C@@H]3CO)[C@H](O)[C@@H](O)[C@@H]2O)[C@H](O)[C@@H](O)[C@@H]1O (some centres unmarked) [Panose, panose]	−		
[Cl][Pb][Cl] [PbCl2]		36	Effect on CMM-forming enzyme activity [4]: inhibited
[Cl-].[Cl-].[Sr+2] [SrCl2]		90	
OC[C@H]1O[C@H](O[C@H]2O[C@H](CO)[C@@H](O)[C@H](O)[C@H]2O)[C@H](O)[C@@H](O)[C@@H]1O [Trehalose, trehalose]	−		
[Cl-].[Cl-].[Zn+2] [ZnCl2]		73	
OC[C@H]1O[C@@H]2O[C@H]3[C@H](O)[C@@H](O)[C@@H](O[C@H]4[C@H](O)[C@@H](O)[C@@H](O[C@H]5[C@H](O)[C@@H](O)[C@@H](O[C@H]6[C@H](O)[C@@H](O)[C@@H](O[C@H]7[C@H](O)[C@@H](O)[C@@H](O[C@H]1[C@H](O)[C@H]2O)O[C@@H]7CO)O[C@@H]6CO)O[C@@H]5CO)O[C@@H]4CO)O[C@@H]3CO [α-Cyclodextrin, α-cyclodextrin]	−		
OC[C@H]1O[C@@H]2O[C@H]3[C@H](O)[C@@H](O)[C@@H](O[C@H]4[C@H](O)[C@@H](O)[C@@H](O[C@H]5[C@H](O)[C@@H](O)[C@@H](O[C@H]6[C@H](O)[C@@H](O)[C@@H](O[C@H]7[C@H](O)[C@@H](O)[C@@H](O[C@H]8[C@H](O)[C@@H](O)[C@@H](O[C@H]1[C@H](O)[C@H]2O)O[C@@H]8CO)O[C@@H]7CO)O[C@@H]6CO)O[C@@H]5CO)O[C@@H]4CO)O[C@@H]3CO [β-Cyclodextrin, β-cyclodextrin]	−		
OC[C@H]1O[C@@H]2O[C@H]3[C@H](O)[C@@H](O)[C@@H](O[C@H]4[C@H](O)[C@@H](O)[C@@H](O[C@H]5[C@H](O)[C@@H](O)[C@@H](O[C@H]6[C@H](O)[C@@H](O)[C@@H](O[C@H]7[C@H](O)[C@@H](O)[C@@H](O[C@H]8[C@H](O)[C@@H](O)[C@@H](O[C@H]9[C@H](O)[C@@H](O)[C@@H](O[C@H]1[C@H](O)[C@H]2O)O[C@@H]9CO)O[C@@H]8CO)O[C@@H]7CO)O[C@@H]6CO)O[C@@H]5CO)O[C@@H]4CO)O[C@@H]3CO [γ-Cyclodextrin, γ-cyclodextrin]	−		
amylose	+++		CMM content (%) [5]: 41.8%; CMM content (%) ([5]; listed as amylose): about 42%
dextran	−		
glycogen	++		CMM content (%) [5]: 29.5%; CMM content (%) ([5]; listed as glycogen): about 30%
maltoheptaose	+++		CMM content (%) [5]: 36.6%
maltohexaose	+++		CMM content (%) [5]: 41.6%
maltopentaose	+++		CMM content (%) [5]: 24.4%
maltotriose	+		CMM content (%) [5]: 0.6%; CMM content (%) ([5]; listed as maltotriose): about 0.6%
pullulan	−		
soluble starch	+++		CMM content (%) [5]: 31.4%; CMM content (%) ([5]; listed as soluble starch): about 30%
